Literature values as cited in patent US20240226016A1, “STARCH BASED PRINTABLE MATERIALS” (ROQUETTE FRERES, priority 2021, published 2024).

solubility in water (class): freely soluble in water
Compound: Cn1c(=O)c2c(ncn2CC(O)CO)n(C)c1=O (stereo not shown) [diprophylline]
